# Assays:
# Glucocorticoid receptor [1] = molecular target: T1, Glucocorticoid receptor (Homo sapiens, UniProt P04150); assay: Displacement of [3H]dexamethasone from human glucocorticoid receptor expressed in baculovirus infected Sf9 cells after overnight incubation by scintillation counting
# T1 sequence (P04150 whole entry): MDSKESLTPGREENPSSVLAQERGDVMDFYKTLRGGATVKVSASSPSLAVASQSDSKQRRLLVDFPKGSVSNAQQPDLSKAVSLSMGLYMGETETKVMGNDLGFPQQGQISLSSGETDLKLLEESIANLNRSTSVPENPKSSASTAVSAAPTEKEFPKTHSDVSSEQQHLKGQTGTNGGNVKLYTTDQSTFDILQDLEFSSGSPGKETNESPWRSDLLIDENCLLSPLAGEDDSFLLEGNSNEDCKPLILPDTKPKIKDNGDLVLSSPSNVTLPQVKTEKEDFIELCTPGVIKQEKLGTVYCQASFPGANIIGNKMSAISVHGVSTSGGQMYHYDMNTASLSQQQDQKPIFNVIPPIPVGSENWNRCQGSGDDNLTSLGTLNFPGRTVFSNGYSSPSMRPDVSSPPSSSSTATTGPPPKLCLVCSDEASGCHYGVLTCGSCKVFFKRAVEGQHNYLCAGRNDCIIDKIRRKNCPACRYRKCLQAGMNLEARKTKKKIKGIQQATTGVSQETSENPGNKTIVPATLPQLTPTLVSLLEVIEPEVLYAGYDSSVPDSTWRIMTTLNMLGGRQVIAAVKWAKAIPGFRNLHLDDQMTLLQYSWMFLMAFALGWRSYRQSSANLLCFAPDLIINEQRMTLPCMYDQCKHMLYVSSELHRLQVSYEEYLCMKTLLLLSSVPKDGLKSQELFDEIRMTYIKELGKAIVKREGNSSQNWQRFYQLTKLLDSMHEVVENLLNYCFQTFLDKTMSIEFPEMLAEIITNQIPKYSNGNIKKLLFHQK
# Glucocorticoid receptor [2] = molecular target: T1, Glucocorticoid receptor; assay: Antagonist activity at human glucocorticoid receptor expressed in CHOK1 cells assessed as inhibition of dexamethasone-induced alkaline phosphatase expression after 46 hrs by reporter gene assay; type: functional, cell-based, CHO-K1
# Glucocorticoid receptor [3] = molecular target: T1, Glucocorticoid receptor; assay: Displacement of [3H]dexamethasone from human glucocorticoid receptor expressed in baculovirus infected Sf9 cells after 16-18 hrs by beta counting
# Glucocorticoid receptor [4] = molecular target: T1, Glucocorticoid receptor; assay: Antagonist activity at human glucocorticoid receptor expressed in GRAF cells assessed as inhibition of dexamethasone-induced alkaline phosphatase expression after 48 hrs by reporter gene assay; type: functional, cell-based
# Glucocorticoid receptor [5] = molecular target: T2, Glucocorticoid receptor (Rattus norvegicus, UniProt P06536); assay: Antagonist activity at glucocorticoid receptor in rat H4IIE cells assessed as inhibition of dexamethasone-induced […] expression after 24 hrs by reporter gene assay; type: functional, cell-based
# T2 sequence (P06536 whole entry): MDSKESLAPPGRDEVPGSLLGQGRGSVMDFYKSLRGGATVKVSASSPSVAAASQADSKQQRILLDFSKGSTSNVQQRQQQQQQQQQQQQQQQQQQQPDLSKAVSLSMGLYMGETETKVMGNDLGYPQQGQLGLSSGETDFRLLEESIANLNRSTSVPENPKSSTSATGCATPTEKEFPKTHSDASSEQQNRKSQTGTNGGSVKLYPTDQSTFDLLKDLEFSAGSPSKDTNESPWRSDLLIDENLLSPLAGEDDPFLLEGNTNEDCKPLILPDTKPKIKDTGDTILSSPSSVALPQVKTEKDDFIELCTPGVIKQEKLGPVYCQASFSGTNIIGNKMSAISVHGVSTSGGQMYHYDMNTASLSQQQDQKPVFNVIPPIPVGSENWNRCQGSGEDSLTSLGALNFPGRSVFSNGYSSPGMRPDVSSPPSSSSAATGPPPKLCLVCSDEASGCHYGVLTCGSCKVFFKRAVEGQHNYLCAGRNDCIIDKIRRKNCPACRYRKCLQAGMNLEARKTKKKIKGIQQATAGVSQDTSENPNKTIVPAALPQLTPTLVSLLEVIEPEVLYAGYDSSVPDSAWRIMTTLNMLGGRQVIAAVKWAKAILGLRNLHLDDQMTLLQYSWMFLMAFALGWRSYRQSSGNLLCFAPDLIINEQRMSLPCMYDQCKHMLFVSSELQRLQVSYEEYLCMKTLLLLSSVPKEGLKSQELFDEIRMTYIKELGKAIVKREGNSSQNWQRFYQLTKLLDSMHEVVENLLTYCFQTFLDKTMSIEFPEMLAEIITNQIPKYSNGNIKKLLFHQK
# Glucocorticoid receptor [6] = molecular target: T2, Glucocorticoid receptor; assay: Antagonist activity at glucocorticoid receptor in rat hepatocytes assessed as inhibition of dexamethasone-induced […] expression incubated for 30 mins prior to dexamethasone-induction measured after 4 hrs by reporter gene assay; type: functional, cell-based, Hepatocyte
SMILES,IC50 (Glucocorticoid receptor [1]) [nM],IC50 (Glucocorticoid receptor [2]) [nM],IC50 (Glucocorticoid receptor [3]) [nM],IC50 (Glucocorticoid receptor [4]) [nM],IC50 (Glucocorticoid receptor [5]) [nM],IC50 (Glucocorticoid receptor [6]) [nM]
O=C(O)Cc1cc(Br)c(N(Cc2ccc(Oc3ccccc3)cc2)Cc2cccc(F)c2)c(Br)c1,820,,,,,
COc1cc(C(=O)c2cccc(C)c2)c(Oc2c(Br)cc(CC(=O)O)cc2Br)cc1C(C)C,20,400,19,410,2500,2490
O=C(O)Cc1cc(Br)c(N(Cc2ccc(Oc3ccccc3F)cc2)Cc2cc(F)cc(F)c2)c(Br)c1,145,,,46,,2100
O=C(O)Cc1cc(Br)c(N(Cc2ccccc2)Cc2ccc(Oc3ccccc3)cc2)c(Br)c1,1200,,,,,
O=C(O)Cc1cc(Br)c(N(Cc2ccc(Oc3ccccc3C(F)(F)F)cc2)Cc2cc(F)cc(F)c2)c(Br)c1,298,,,598,,3300
Cc1ccc(Oc2ccc(CN(Cc3cc(F)cc(F)c3)c3c(Br)cc(CC(=O)O)cc3Br)cc2)c(C)c1,1640,,,,,
O=C(O)Cc1cc(Br)c(N(Cc2ccc(Oc3ccccc3Br)cc2)Cc2cc(F)cc(F)c2)c(Br)c1,801,,,1170,,> 10000
Cc1ccccc1Oc1ccc(CN(Cc2cc(F)cc(F)c2)c2c(Br)cc(CC(=O)O)cc2Br)cc1,1280,,,,,
O=C(O)Cc1cc(Br)c(N(Cc2ccc(Oc3ccc(C(F)(F)F)cc3C(F)(F)F)cc2)Cc2cc(F)cc(F)c2)c(Br)c1,111,,,421,,2900
O=C(O)Cc1cc(Br)c(N(Cc2ccc(Oc3ccc(Br)cc3Br)cc2)Cc2cc(F)cc(F)c2)c(Br)c1,879,,,1420,,> 10000
